Source: ChEMBL document CHEMBL3227996, “New bronchodilators. Synthesis and bronchodilating activity of some 3-(alkoxymethyl)-alpha-(N-substituted aminomethyl)-4-hydroxybenzyl alcohols” (1979)

Legend:
Assay type in all cases: functional
Cavia porcellus [1] = assay: Inhibition of histamine-induced asthma-like syndrome in guinea pig assessed as time delay in appearance of anoxia at 5 mg/kg, po treated 30 mins before histamine challenge (reference value: 5.08 mins)
Cavia porcellus [2] = assay: Inhibition of histamine-induced asthma-like syndrome in guinea pig assessed as time delay in appearance of coughing at 5 mg/kg, po treated 30 mins before histamine challenge (reference value: 6.13 mins)
Cavia porcellus [3] = assay: Inhibition of histamine-induced asthma-like syndrome in guinea pig assessed as time delay in appearance of anoxia at 1.25 mg/kg, po treated 30 mins before histamine challenge (reference value: 5.08 mins)
Cavia porcellus [4] = assay: Inhibition of histamine-induced asthma-like syndrome in guinea pig assessed as time delay in appearance of coughing at 1.25 mg/kg, po treated 30 mins before histamine challenge (reference value: 6.13 mins)
Cavia porcellus [5] = assay: Inhibition of histamine-induced airway resistance in guinea pig administered intravenously 3 mins before histamine challenge; conditions: iv

Molecule COCc1cc(C(O)CNC(C)C)ccc1O.Cl (configuration not stated) has a Time (Cavia porcellus [1]) of 10.38 min and a Time (Cavia porcellus [2]) of 15.25 min.
Work on CCOCc1cc(C(O)CNC(C)C)ccc1O.Cl (configuration not stated) yielded a Time (Cavia porcellus [1]) of 9.23 min and a Time (Cavia porcellus [2]) of 14.03 min.
COCCOCc1cc(C(O)CNC(C)C)ccc1O.Cl (configuration not stated) gave a Time (Cavia porcellus [1]) of 8.8 min and a Time (Cavia porcellus [2]) of 9.7 min.
With COCc1cc(C(O)CNC(C)(C)C)ccc1O.Cl (configuration not stated) the Time (Cavia porcellus [3]) was 17.17 min and the Time (Cavia porcellus [4]) was 20 min.
CCOCc1cc(C(O)CNC(C)(C)C)ccc1O.Cl (configuration not stated) gave a Time (Cavia porcellus [3]) of 14.55 min and a Time (Cavia porcellus [4]) of 14.85 min.
Molecule COCCOCc1cc(C(O)CNC(C)(C)C)ccc1O.Cl (configuration not stated) has a Time (Cavia porcellus [3]) of 6.75 min, a Time (Cavia porcellus [1]) of 13.8 min and a Time (Cavia porcellus [4]) of 7.88 min. For the same molecule, the Time (Cavia porcellus [2]) was 15.18 min.
CCOCCOCc1cc(C(O)CNC(C)(C)C)ccc1O.Cl (configuration not stated) was tested, and the Time (Cavia porcellus [3]) was 10.58 min, the Time (Cavia porcellus [1]) was 8.97 min and the Time (Cavia porcellus [4]) was 11.81 min. The Time (Cavia porcellus [2]) was 14.08 min.
Molecule CC(C)(C)NCC(O)c1ccc(O)c(COCCO)c1.Cl (configuration not stated) has a Time (Cavia porcellus [1]) of 4.98 min and a Time (Cavia porcellus [2]) of 5.97 min.
For COCc1cc(C(O)CNC(C)C)cc(COC)c1O.Cl (configuration not stated), the Time (Cavia porcellus [3]) was 10.71 min and the Time (Cavia porcellus [4]) was 11 min.
Molecule COCc1cc(C(O)CNC(C)(C)C)cc(COC)c1O.Cl (configuration not stated) has a Time (Cavia porcellus [3]) of 7.35 min and a Time (Cavia porcellus [4]) of 7.78 min.
COCc1cc(C(O)CNC(C)Cc2ccccc2)ccc1O.Cl (configuration not stated) was tested, and the Time (Cavia porcellus [1]) was 9.61 min and the Time (Cavia porcellus [2]) was 11.65 min.
CCOCc1cc(C(O)CNC(C)Cc2ccccc2)ccc1O.Cl (configuration not stated) gave a Time (Cavia porcellus [1]) of 12.57 min and a Time (Cavia porcellus [2]) of 13.92 min.
For COCc1cc(C(O)CNC(C)(C)Cc2ccccc2)ccc1O.Cl (configuration not stated), the Time (Cavia porcellus [1]) was 11.35 min and the Time (Cavia porcellus [2]) was 11.83 min.
In the case of CCOCc1cc(C(O)CNC(C)(C)Cc2ccccc2)ccc1O.Cl (configuration not stated), the Time (Cavia porcellus [1]) is reported as 15.98 min and the Time (Cavia porcellus [2]) is reported as 16.08 min.
COCc1cc(C(O)CNC(C)Cc2ccc3c(c2)OCO3)ccc1O.O=C(O)C(=O)O (configuration not stated) showed a Time (Cavia porcellus [3]) of 10.43 min and a Time (Cavia porcellus [4]) of 12.05 min.
COCc1cc(C(O)CNC(C)Cc2ccc(O)cc2)ccc1O.O=C(O)C(=O)O (configuration not stated) was tested, and the Time (Cavia porcellus [3]) was 19.97 min and the Time (Cavia porcellus [4]) was 20 min.
COCc1cc(C(O)CNC(C)Cc2ccc(OC)cc2)ccc1O.O=C(O)/C=C/C(=O)O (configuration not stated) showed a Time (Cavia porcellus [3]) of 19.1 min, a Time (Cavia porcellus [4]) of 20 min and an ED50 (Cavia porcellus [5]) of 2.75 µg/kg.
CC(C)(C)NCC(O)c1ccc(O)c(CO)c1 (configuration not stated) [ALBUTEROL] gave a Time (Cavia porcellus [3]) of 8.1 min, a Time (Cavia porcellus [1]) of 17.22 min and a Time (Cavia porcellus [4]) of 9.68 min. It also gave a Time (Cavia porcellus [2]) of 19.13 min.
CC(C)NCC(O)c1ccc(O)c(O)c1 (configuration not stated) [ISOPROTERENOL] showed a Time (Cavia porcellus [3]) of 6.82 min, a Time (Cavia porcellus [1]) of 12.71 min and a Time (Cavia porcellus [4]) of 8.02 min. It also gave a Time (Cavia porcellus [2]) of 17.67 min.
